Laboratory results reported in patent publication US10167262B2, “Herbicidal substituted 3-arylpyrazoles” (FMC CORPORATION, priority 2014, dated 2019).

Columns and labels:
Format in all cases: in vivo
[1] = test system: barnyardgrass (Echinochloa crus-galli); assay: Test A pre-/postemergence greenhouse herbicide test, visual injury rating 0-100
Outline: (§1)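 Visual injury scored on a 0–100 scale versus untreated controls roughly 10 days after treatment in greenhouse. Treatments were preemergence soil sprays plus postemergence sprays to plants 2–10 cm tall at one- to two-leaf stage, in a surfactant-containing solvent formulation.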

corn (Zea mays) = assay: as above
Outline: as §1

[2] = test system: giant foxtail (Setaria faberii); assay: as above
Outline: as §1

[3] = test system: large (Lg) crabgrass (Digitaria sanguinalis); assay: as above
Outline: as §1

[4] = test system: morningglory (Ipomoea spp.); assay: as above
Outline: as §1

[5] = test system: pigweed (Amaranthus retroflexus); assay: as above
Outline: as §1

[6] = test system: velvetleaf (Abutilon theophrasti); assay: as above
Outline: as §1

[7] = test system: wheat (Triticum aestivum); assay: as above
Outline: as §1

[8] = test system: barnyardgrass (Echinochloa crus-galli); assay: Test B flooded paddy test, plant response rating 0-100; settings: Flood, 250 g ai/ha; scale 0 to 100 (0 no effect, 100 complete control); 13 to 15 days
Outline: (§2)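 Under a constant 3 cm flood, test compounds went directly into the paddy water. Following 13 to 15 days of greenhouse growth, treated species and controls were compared by eye.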

[9] = test system: ducksalad (Heteranthera limosa); assay: as above; settings: Flood, 250 g ai/ha; scale 0 to 100 (0 no effect, 100 complete control); 13 to 15 days
Outline: as §2

rice (Oryza sativa) = assay: as above; settings: Flood, 250 g ai/ha; scale 0 to 100 (0 no effect, 100 complete control); 13 to 15 days
Outline: as §2

[10] = test system: sedge, umbrella (small-flower umbrella sedge, Cyperus difformis); assay: as above; settings: Flood, 250 g ai/ha; scale 0 to 100 (0 no effect, 100 complete control); 13 to 15 days
Outline: as §2

O=C(c1ccccc1)c1cn(C(=O)C2CC2)nc1-c1cc(Cl)cc(Cl)c1 [Compound 26]
80: Plant response rating (0 to 100 scale), Pigweed ([5]; Postemergence, 500 g ai/ha) | Plant response rating (0 to 100 scale), Velvetleaf ([6]; Postemergence, 500 g ai/ha)
50: Plant response rating (0 to 100 scale), Velvetleaf ([6]; Postemergence, 125 g ai/ha)
40: Plant response rating (0 to 100 scale), Pigweed ([5]; Postemergence, 125 g ai/ha)
0: Plant response rating (0 to 100 scale), Barnyardgrass ([1]; Postemergence, 125 g ai/ha) | Plant response rating (0 to 100 scale), Barnyardgrass ([1]; Postemergence, 500 g ai/ha) | Barnyardgrass plant response rating (0 = no effect, 100 = complete control) ([1]; Preemergence, 125 g ai/ha) | Plant response rating (0 to 100 scale), Barnyardgrass ([1]; Preemergence, 500 g ai/ha) | Plant response rating (0 to 100 scale), Corn (corn (Zea mays); Postemergence, 125 g ai/ha) | Plant response rating (0 to 100 scale), Corn (corn (Zea mays); Postemergence, 500 g ai/ha) | Corn plant response rating (0 = no effect, 100 = complete control) (corn (Zea mays); Preemergence, 125 g ai/ha) | Plant response rating (0 to 100 scale), Corn (corn (Zea mays); Preemergence, 500 g ai/ha) | Plant response rating (0 to 100 scale), Foxtail, Giant ([2]; Postemergence, 125 g ai/ha) | Plant response rating (0 to 100 scale), Foxtail, Giant ([2]; Postemergence, 500 g ai/ha) | Foxtail, Giant plant response rating (0 = no effect, 100 = complete control) ([2]; Preemergence, 125 g ai/ha) | Plant response rating (0 to 100 scale), Foxtail, Giant ([2]; Preemergence, 500 g ai/ha) | Plant response rating (0 to 100 scale), Crabgrass, Large ([3]; Postemergence, 125 g ai/ha) | Plant response rating (0 to 100 scale), Crabgrass, Large ([3]; Postemergence, 500 g ai/ha) | Crabgrass, Large plant response rating (0 = no effect, 100 = complete control) ([3]; Preemergence, 125 g ai/ha) | Plant response rating (0 to 100 scale), Crabgrass, Large ([3]; Preemergence, 500 g ai/ha) | Plant response rating (0 to 100 scale), Morningglory ([4]; Postemergence, 125 g ai/ha) | Plant response rating (0 to 100 scale), Morningglory ([4]; Postemergence, 500 g ai/ha) | Morningglory plant response rating (0 = no effect, 100 = complete control) ([4]; Preemergence, 125 g ai/ha) | Plant response rating (0 to 100 scale), Morningglory ([4]; Preemergence, 500 g ai/ha) | Pigweed plant response rating (0 = no effect, 100 = complete control) ([5]; Preemergence, 125 g ai/ha) | Plant response rating (0 to 100 scale), Pigweed ([5]; Preemergence, 500 g ai/ha) | Velvetleaf plant response rating (0 = no effect, 100 = complete control) ([6]; Preemergence, 125 g ai/ha) | Plant response rating (0 to 100 scale), Velvetleaf ([6]; Preemergence, 500 g ai/ha) | Plant response rating (0 to 100 scale), Wheat ([7]; Postemergence, 125 g ai/ha) | Plant response rating (0 to 100 scale), Wheat ([7]; Postemergence, 500 g ai/ha) | Wheat plant response rating (0 = no effect, 100 = complete control) ([7]; Preemergence, 125 g ai/ha) | Plant response rating (0 to 100 scale), Wheat ([7]; Preemergence, 500 g ai/ha) | Plant response rating, Barnyardgrass [8] | Plant response rating, Ducksalad [9] | Plant response rating, Rice (rice (Oryza sativa)) | Plant response rating, Sedge, Umbrella [10]

O=C(c1ccccc1)c1cn(CC2CC2)nc1-c1cc(Cl)cc(Cl)c1 [Compound 41]
40: Plant response rating (0 to 100 scale), Velvetleaf ([6]; Postemergence, 125 g ai/ha)
0: Plant response rating (0 to 100 scale), Barnyardgrass ([1]; Postemergence, 125 g ai/ha) | Plant response rating (0 to 100 scale), Barnyardgrass ([1]; Postemergence, 500 g ai/ha) | Barnyardgrass plant response rating (0 = no effect, 100 = complete control) ([1]; Preemergence, 125 g ai/ha) | Plant response rating (0 to 100 scale), Barnyardgrass ([1]; Preemergence, 500 g ai/ha) | Plant response rating (0 to 100 scale), Corn (corn (Zea mays); Postemergence, 125 g ai/ha) | Plant response rating (0 to 100 scale), Corn (corn (Zea mays); Postemergence, 500 g ai/ha) | Corn plant response rating (0 = no effect, 100 = complete control) (corn (Zea mays); Preemergence, 125 g ai/ha) | Plant response rating (0 to 100 scale), Corn (corn (Zea mays); Preemergence, 500 g ai/ha) | Plant response rating (0 to 100 scale), Foxtail, Giant ([2]; Postemergence, 125 g ai/ha) | Plant response rating (0 to 100 scale), Foxtail, Giant ([2]; Postemergence, 500 g ai/ha) | Foxtail, Giant plant response rating (0 = no effect, 100 = complete control) ([2]; Preemergence, 125 g ai/ha) | Plant response rating (0 to 100 scale), Foxtail, Giant ([2]; Preemergence, 500 g ai/ha) | Plant response rating (0 to 100 scale), Crabgrass, Large ([3]; Postemergence, 125 g ai/ha) | Plant response rating (0 to 100 scale), Crabgrass, Large ([3]; Postemergence, 500 g ai/ha) | Crabgrass, Large plant response rating (0 = no effect, 100 = complete control) ([3]; Preemergence, 125 g ai/ha) | Plant response rating (0 to 100 scale), Crabgrass, Large ([3]; Preemergence, 500 g ai/ha) | Plant response rating (0 to 100 scale), Morningglory ([4]; Postemergence, 125 g ai/ha) | Plant response rating (0 to 100 scale), Morningglory ([4]; Postemergence, 500 g ai/ha) | Morningglory plant response rating (0 = no effect, 100 = complete control) ([4]; Preemergence, 125 g ai/ha) | Plant response rating (0 to 100 scale), Morningglory ([4]; Preemergence, 500 g ai/ha) | Pigweed plant response rating (0 = no effect, 100 = complete control) ([5]; Preemergence, 125 g ai/ha) | Velvetleaf plant response rating (0 = no effect, 100 = complete control) ([6]; Preemergence, 125 g ai/ha) | Plant response rating (0 to 100 scale), Wheat ([7]; Postemergence, 125 g ai/ha) | Plant response rating (0 to 100 scale), Wheat ([7]; Postemergence, 500 g ai/ha) | Wheat plant response rating (0 = no effect, 100 = complete control) ([7]; Preemergence, 125 g ai/ha) | Plant response rating (0 to 100 scale), Wheat ([7]; Preemergence, 500 g ai/ha) | Plant response rating, Barnyardgrass [8] | Plant response rating, Ducksalad [9] | Plant response rating, Rice (rice (Oryza sativa))
80: Plant response rating (0 to 100 scale), Velvetleaf ([6]; Postemergence, 500 g ai/ha)
60: Plant response rating (0 to 100 scale), Pigweed ([5]; Postemergence, 500 g ai/ha) | Plant response rating (0 to 100 scale), Pigweed ([5]; Preemergence, 500 g ai/ha) | Plant response rating (0 to 100 scale), Velvetleaf ([6]; Preemergence, 500 g ai/ha)
30: Plant response rating (0 to 100 scale), Pigweed ([5]; Postemergence, 125 g ai/ha) | Plant response rating, Sedge, Umbrella [10]

Fc1cc(Cl)cc(-c2n[nH]cc2C(=NN2CCCC2)c2ccccc2)c1 [Compound 42]
0: Plant response rating (0 to 100 scale), Barnyardgrass ([1]; Postemergence, 1000 g ai/ha) | Plant response rating (0 to 100 scale), Barnyardgrass ([1]; Preemergence, 1000 g ai/ha) | Plant response rating (0 to 100 scale), Corn (corn (Zea mays); Postemergence, 1000 g ai/ha) | Plant response rating (0 to 100 scale), Corn (corn (Zea mays); Preemergence, 1000 g ai/ha) | Plant response rating (0 to 100 scale), Foxtail, Giant ([2]; Postemergence, 1000 g ai/ha) | Plant response rating (0 to 100 scale), Foxtail, Giant ([2]; Preemergence, 1000 g ai/ha) | Plant response rating (0 to 100 scale), Crabgrass, Large ([3]; Postemergence, 1000 g ai/ha) | Plant response rating (0 to 100 scale), Crabgrass, Large ([3]; Preemergence, 1000 g ai/ha) | Plant response rating (0 to 100 scale), Morningglory ([4]; Postemergence, 1000 g ai/ha) | Plant response rating (0 to 100 scale), Morningglory ([4]; Preemergence, 1000 g ai/ha) | Plant response rating (0 to 100 scale), Wheat ([7]; Postemergence, 1000 g ai/ha) | Plant response rating (0 to 100 scale), Wheat ([7]; Preemergence, 1000 g ai/ha) | Plant response rating, Barnyardgrass [8] | Plant response rating, Ducksalad [9] | Plant response rating, Rice (rice (Oryza sativa)) | Plant response rating, Sedge, Umbrella [10]
100: Plant response rating (0 to 100 scale), Pigweed ([5]; Postemergence, 1000 g ai/ha) | Plant response rating (0 to 100 scale), Pigweed ([5]; Preemergence, 1000 g ai/ha) | Plant response rating (0 to 100 scale), Velvetleaf ([6]; Postemergence, 1000 g ai/ha) | Plant response rating (0 to 100 scale), Velvetleaf ([6]; Preemergence, 1000 g ai/ha)
